Test results: ChEMBL document CHEMBL5584307, “Discovery of a Potent and Orally Bioavailable Xanthine Oxidase/Urate Transporter 1 Dual Inhibitor as a Potential Treatment for Hyperuricemia and Gout” (J Med Chem, 2024)

Tests used:
[1] = Toxicity in cynomolgous monkey assessed as increase in salivation at 90 to 200 mg/kg/day for 28 days consecutively; assay type: organism-based, Macaca fascicularis; conditions: cynomolgus monkey, in vivo, 672 h; dose 90-200 mg/kg/day, time 28 day
[2] = Toxicity in Sprague-Dawley rat assessed as development-limiting effect; conditions: in vivo
[3] = Stability in monkey liver microsomes assessed as half life at 1 uM measured upto 60 mins in presence of NADPH by LC-MS/MS analysis; assay type: ADME, Macaca mulatta, Microsome; conditions: rhesus monkey
[4] = Cmax in Cynomolgous monkey at 5 mg/kg, po measured upto 24 hrs by LC-MS/MS analysis; assay type: ADME, organism-based, Macaca fascicularis; conditions: cynomolgus monkey, in vivo
[5] = Clearance in Cynomolgous monkey at 1 mg/kg, iv measured upto 24 hrs by LC-MS/MS analysis; assay type: ADME, organism-based, Macaca fascicularis; conditions: cynomolgus monkey, in vivo
[6] = Toxicity in rat; conditions: in vivo
Sapajus apella [7] = experiment: Urate lowering effect in Tufted capuchin monkey assessed as fraction excretion of uric acid at 100 mg/kg/day, po qd for 3 days consecutively relative to control; assay type: functional; conditions: time 3 day
[8] = Clearance in Beagle dog at 1 mg/kg, iv measured upto 24 hrs by LC-MS/MS analysis; assay type: ADME, organism-based, Canis lupus familiaris; conditions: in vivo
[9] = Genotoxicity in Salmonella typhimurium TA97 by Ames test; assay type: toxicity; conditions: salmonella enterica subsp. enterica serovar typhimurium
Cytochrome P450 3A4 = Cytochrome P450 3A4 (Homo sapiens, UniProt P08684); experiment: Inhibition of CYP3A4 in human liver microsomes in presence of NADPH by LC-MS/MS analysis; assay type: ADME, Microsome
Chain of Cytochrome P450 3A4 (P08684 whole entry): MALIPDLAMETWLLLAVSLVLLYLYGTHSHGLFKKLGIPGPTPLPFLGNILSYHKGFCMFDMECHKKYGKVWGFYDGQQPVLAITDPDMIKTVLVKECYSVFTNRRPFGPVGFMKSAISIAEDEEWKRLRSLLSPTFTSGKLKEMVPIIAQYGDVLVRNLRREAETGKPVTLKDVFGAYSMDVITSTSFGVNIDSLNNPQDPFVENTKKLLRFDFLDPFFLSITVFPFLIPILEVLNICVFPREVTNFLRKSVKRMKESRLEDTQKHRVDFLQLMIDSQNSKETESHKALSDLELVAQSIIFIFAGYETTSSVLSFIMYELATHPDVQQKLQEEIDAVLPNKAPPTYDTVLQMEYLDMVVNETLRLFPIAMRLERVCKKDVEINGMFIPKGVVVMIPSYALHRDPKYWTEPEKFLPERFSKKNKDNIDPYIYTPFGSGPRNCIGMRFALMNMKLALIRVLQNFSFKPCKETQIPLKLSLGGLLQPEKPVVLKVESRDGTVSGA

[10] = AUC (0 to t) in male cynomolgous monkey at 30 mg/kg/day for 28 days; assay type: ADME, organism-based, Macaca fascicularis; conditions: cynomolgus monkey, in vivo, time 28 day
Cytochrome P450 1A2 = biological target: T1, Cytochrome P450 1A2 (Homo sapiens, UniProt P05177); experiment: Induction of CYP1A2 in human hepatocytes at 50 uM incubated for 48 hrs with media containing compound renewal every 24 hrs followed by substrate addition measured after 30 mins by LC-MS/MS analysis; assay type: ADME, cell-based, Hepatocyte; conditions: 48.5 h
T1 sequence (P05177 whole entry): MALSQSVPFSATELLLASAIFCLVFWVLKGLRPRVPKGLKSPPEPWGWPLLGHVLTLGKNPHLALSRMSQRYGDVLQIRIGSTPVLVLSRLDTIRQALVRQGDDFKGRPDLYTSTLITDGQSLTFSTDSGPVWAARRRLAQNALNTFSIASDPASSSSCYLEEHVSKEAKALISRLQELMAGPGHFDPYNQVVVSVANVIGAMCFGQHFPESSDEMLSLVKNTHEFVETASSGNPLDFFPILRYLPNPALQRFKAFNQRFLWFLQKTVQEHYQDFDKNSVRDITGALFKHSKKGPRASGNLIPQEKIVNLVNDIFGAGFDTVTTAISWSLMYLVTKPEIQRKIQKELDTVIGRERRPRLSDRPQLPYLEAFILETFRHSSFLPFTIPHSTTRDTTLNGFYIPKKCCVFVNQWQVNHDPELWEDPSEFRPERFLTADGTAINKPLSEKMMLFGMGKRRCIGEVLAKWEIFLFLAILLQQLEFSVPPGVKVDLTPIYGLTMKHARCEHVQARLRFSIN

[11] = AUC (0 to t) in female rat at 60 mg/kg/day for 28 days; assay type: ADME, organism-based; conditions: in vivo, time 28 day
[12] = Genotoxicity in Salmonella typhimurium TA98 by Ames test; assay type: toxicity; conditions: salmonella enterica subsp. enterica serovar typhimurium
[13] = Half life in Tufted capuchin monkey at 10 mg/kg, po measured for 24 hrs by LC-MS/MS analysis; assay type: ADME, organism-based; conditions: sapajus apella, in vivo
[14] = AUC (0 to t) in male rat at 60 mg/kg/day for 28 days; assay type: ADME, organism-based; conditions: in vivo, time 28 day
Sapajus apella [15] = conditions: dose 100.0 mg/kg/day, route po, time 3.0 day
[16] = Oral bioavailability in overnight-fasted Sprague-Dawley rat at 5 mg/kg measured upto 24 hrs by LC-MS/MS analysis; assay type: ADME, organism-based; conditions: in vivo
[17] = Toxicity in cynomolgous monkey assessed as drug tolerance at 30 to 200 mg/kg/day for 28 days consecutively; assay type: organism-based, Macaca fascicularis; conditions: cynomolgus monkey, in vivo, 672 h; dose 30-200 mg/kg/day, time 28 day
[18] = Half life in Tufted capuchin monkey at 30 mg/kg, po measured for 24 hrs by LC-MS/MS analysis; assay type: ADME, organism-based; conditions: sapajus apella, in vivo
[19] = Oral bioavailability in Beagle dog at 5 mg/kg measured upto 24 hrs by LC-MS/MS analysis; assay type: ADME, organism-based, Canis lupus familiaris; conditions: in vivo
[20] = biological target: T2, Solute carrier family 22 member 12 (Homo sapiens, UniProt Q96S37); experiment: Inhibition of URAT1 (unknown origin) by absorbance based assay
T2 sequence (Q96S37 whole entry): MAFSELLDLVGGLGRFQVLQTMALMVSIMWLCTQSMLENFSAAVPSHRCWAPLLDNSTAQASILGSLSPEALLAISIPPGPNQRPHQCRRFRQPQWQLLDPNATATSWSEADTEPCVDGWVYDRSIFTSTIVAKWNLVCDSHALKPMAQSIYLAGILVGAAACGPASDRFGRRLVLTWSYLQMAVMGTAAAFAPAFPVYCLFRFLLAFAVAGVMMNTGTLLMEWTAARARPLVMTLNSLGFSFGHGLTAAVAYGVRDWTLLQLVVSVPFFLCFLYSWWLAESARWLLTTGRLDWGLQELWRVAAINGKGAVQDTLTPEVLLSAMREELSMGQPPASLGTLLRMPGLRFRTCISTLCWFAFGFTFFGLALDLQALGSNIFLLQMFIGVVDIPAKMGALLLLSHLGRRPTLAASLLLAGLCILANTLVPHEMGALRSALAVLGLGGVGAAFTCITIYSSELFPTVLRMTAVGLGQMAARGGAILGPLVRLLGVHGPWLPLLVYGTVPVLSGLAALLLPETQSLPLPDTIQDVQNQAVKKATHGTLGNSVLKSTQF

[21] = Volume of distribution at steady state in Beagle dog at 5 mg/kg, po or 1 mg/kg, iv measured upto 24 hrs by LC-MS/MS analysis; assay type: ADME, organism-based, Canis lupus familiaris; conditions: in vivo
[22] = Toxicity in rat assessed as acute inflammation in pylorus at 120 mg/kg/day for 28 days by H and E staining based analysis; assay type: organism-based; conditions: in vivo, 672 h, time 28 day
[23] = AUC (last) in Beagle dog at 1 mg/kg, iv measured upto 24 hrs by LC-MS/MS analysis; assay type: ADME, organism-based, Canis lupus familiaris; conditions: in vivo
[24] = Toxicity in cynomolgous monkey administered daily for 28 days; design: species or system Macaca fascicularis; conditions: cynomolgus monkey, in vivo; time 28 day
[25] = Volume of distribution at steady state in Cynomolgous monkey at 5 mg/kg, po or 1 mg/kg, iv measured upto 24 hrs by LC-MS/MS analysis; assay type: ADME, organism-based, Macaca fascicularis; conditions: cynomolgus monkey, in vivo
[26] = Toxicity in rat assessed as mucosal necrosis in pylorus at 120 mg/kg/day for 28 days by H and E staining based analysis; assay type: organism-based; conditions: in vivo, 672 h, time 28 day
[27] = AUC (last) in overnight-fasted Sprague-Dawley rat at 1 mg/kg, iv measured upto 24 hrs by LC-MS/MS analysis; assay type: ADME, organism-based; conditions: in vivo
[28] = Toxicity in monkey; design: species or system Macaca mulatta; conditions: rhesus monkey, in vivo
[29] = Toxicity in rat assessed as increase in CHOL level at 120 mg/kg/day for 28 days; assay type: organism-based; conditions: in vivo, 672 h, time 28 day
[30] = Tmax in Tufted capuchin monkey at 10 mg/kg, po measured for 24 hrs by LC-MS/MS analysis; assay type: ADME, organism-based; conditions: sapajus apella, in vivo

## N#Cc1cc(-c2ccc(C(=O)O)c(O)c2)c2oc(F)cc2c1
[1]
  Activity: Toxic
[2]
  Activity: Non-Toxic
[3]
  half-life at 1 µM: 2.87 h
[4]
  Cmax: 3360 ng/mL
[5]
  clearance: 0.993 mL/min/kg
[6]
  MTD: 450 mg/kg
Sapajus apella [7]
  Activity: 23.55%
[8]
  clearance: 5.07 mL/min/kg
[9]
  Activity: Non-Toxic
Cytochrome P450 3A4
  IC50: > 50 µM
[10]
  AUC(0-t) at 672 h: 339 µg·h/mL
Cytochrome P450 1A2
  Activity: < 20%
[11]
  AUC(0-t) at 672 h: 2390 µg·h/mL
[12]
  Activity: Non-Toxic
[13]
  half-life: 1.52 h
[14]
  AUC(0-t) at 672 h: 2250 µg·h/mL
Sapajus apella [15]
  AUC: 357000 ng·h/mL
[16]
  bioavailability: 145%
[17]
  Activity: Non-Toxic
[18]
  half-life: 3.1 h
[19]
  bioavailability: 69.9%
[20]
  IC50: 0.031 µM
[21]
  Vdss: 1.71 L/kg
[22]
  Activity: Toxic
[23]
  AUC(0-t) at 24 h: 3.13 µg·h/mL
[24]
  NOAEL at 672 h: 30 mg/kg/day
[25]
  Vdss: 0.297 L/kg
[26]
  Activity: Toxic
[27]
  AUC(0-t) at 24 h: 10.9 µg·h/mL
[28]
  MTD: 1000 mg/kg
[29]
  Activity: Toxic
[30]
  Tmax: 0.8 h
